The values below come from patent publication US20250230193A1, “CYCLIC COMPOUND HAVING SELECTIVE KRAS INHIBITORY EFFECT ON HRAS AND NRAS” (CHUGAI SEIYAKU KABUSHIKI KAISHA, priority 2022, published 2025).

Test [1] has as its target GDP-bound NRAS wild-type protein (Homo sapiens, UniProt P01111). Nature of the test: Binding to NRAS by surface plasmon resonance (SPR), Single Cycle Kinetics. Conditions: GDP-bound NRAS wild-type vs GDP-bound KRAS wild-type, SPR. On the technique in general: SPR reads the build-up and loss of mass on a sensor chip optically.
Test [2] concerns the target GDP-bound HRAS wild-type protein (Homo sapiens, UniProt P01112). Nature of the test: Binding to HRAS by surface plasmon resonance (SPR), Single Cycle Kinetics. The settings on record: GDP-bound HRAS wild-type vs GDP-bound KRAS wild-type, SPR.

Sequence of GDP-bound NRAS wild-type protein (P01111 whole entry): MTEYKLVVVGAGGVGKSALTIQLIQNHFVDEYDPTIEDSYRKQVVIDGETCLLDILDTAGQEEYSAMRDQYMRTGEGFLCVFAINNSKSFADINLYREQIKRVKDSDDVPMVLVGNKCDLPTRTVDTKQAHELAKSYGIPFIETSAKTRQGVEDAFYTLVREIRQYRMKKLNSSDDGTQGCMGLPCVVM
Sequence of GDP-bound HRAS wild-type protein (P01112 whole entry): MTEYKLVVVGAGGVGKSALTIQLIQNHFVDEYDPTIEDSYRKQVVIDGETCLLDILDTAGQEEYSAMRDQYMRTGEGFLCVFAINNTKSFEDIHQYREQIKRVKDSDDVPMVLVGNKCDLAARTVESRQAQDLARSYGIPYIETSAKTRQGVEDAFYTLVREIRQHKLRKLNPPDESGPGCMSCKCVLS

Turning to `CCCN(C)C(=O)[C@@H]1CC(=O)N(C)[C@@H](COCC)C(=O)N[C@@H]([C@@H](C)CC)C(=O)N(C)CC(=O)N(C)[C@H]2C/C=C\CCN(C2=O)[C@@H](Cc2ccc(C(F)(F)F)cc2)C(=O)N(C)CC(=O)N[C@@H](CCc2ccc(C(F)(F)F)c(OC)c2)C(=O)N2C[C@@H](C)C[C@H]2C(=O)NC2(CCC2)C(=O)N(C)[C@@H](C2CCCC2)C(=O)N1C` [PP2025], the “NRAS/KRAS (ratio of KD value for NRAS to KD value for KRAS)” value in test [1] was “A (a compound having 10 or more and less than 20 is denoted as A)”. Besides, in test [2], the “HRAS/KRAS (ratio of KD value for HRAS to KD value for KRAS)” value was “B (a compound having 3 or more and less than 10 is denoted as B)”.
Regarding `CCOC[C@H]1C(=O)N[C@@H]([C@@H](C)CC)C(=O)N(C)CC(=O)N(C)[C@H]2C/C=C\CCN(C2=O)[C@@H](Cc2ccc(C(F)(F)F)cc2)C(=O)N(C)CC(=O)N[C@@H](CCc2ccc(C(F)(F)F)c(OC)c2)C(=O)N2C[C@@H](C)C[C@H]2C(=O)NC2(CCC2)C(=O)N(C)[C@@H](C2CCCC2)C(=O)N(C)[C@H](C(=O)N(C)CC)CC(=O)N1C` [PP2026], the “NRAS/KRAS (ratio of KD value for NRAS to KD value for KRAS)” value in test [1] is “A (a compound having 10 or more and less than 20 is denoted as A)”. In test [2], the “HRAS/KRAS (ratio of KD value for HRAS to KD value for KRAS)” value is “A (a compound having 10 or more and less than 20 is denoted as A)”.
As for `CCCOC[C@H]1C(=O)N[C@@H]([C@@H](C)CC)C(=O)N(C)CC(=O)N(C)[C@H]2C/C=C\CCN(C2=O)[C@@H](Cc2ccc(C(F)(F)F)cc2)C(=O)N(C)CC(=O)N[C@@H](CCc2ccc(C(F)(F)F)c(OC)c2)C(=O)N2C[C@@H](C)C[C@H]2C(=O)NC2(CCC2)C(=O)N(C)[C@@H](C2CCCC2)C(=O)N(C)[C@H](C(=O)N(C)CC)CC(=O)N1C` [PP2027], the “NRAS/KRAS (ratio of KD value for NRAS to KD value for KRAS)” value in test [1] was “A (a compound having 10 or more and less than 20 is denoted as A)”. In test [2], the “HRAS/KRAS (ratio of KD value for HRAS to KD value for KRAS)” value was “B (a compound having 3 or more and less than 10 is denoted as B)”.
Take `CCCOC[C@H]1C(=O)N[C@@H]([C@@H](C)CC)C(=O)N(C)CC(=O)N(C)[C@H]2C/C=C\CCN(C2=O)[C@@H](Cc2ccc(C(F)(F)F)cc2)C(=O)N(C)CC(=O)N[C@@H](CCc2ccc(C(F)(F)F)c(OC)c2)C(=O)N2C[C@@H](C)C[C@H]2C(=O)NC2(CCC2)C(=O)N(C)[C@@H](C2CCCC2)C(=O)N(C)[C@H](C(=O)N(C)CCC)CC(=O)N1C` [PP2028]: in test [1], the “NRAS/KRAS (ratio of KD value for NRAS to KD value for KRAS)” value is “A (a compound having 10 or more and less than 20 is denoted as A)”. Moreover, in test [2], the “HRAS/KRAS (ratio of KD value for HRAS to KD value for KRAS)” value was “B (a compound having 3 or more and less than 10 is denoted as B)”.
For the compound `CCCN(C)C(=O)[C@@H]1CC(=O)N(C)[C@@H](CCOC)C(=O)N[C@@H]([C@@H](C)CC)C(=O)N(C)CC(=O)N(C)[C@H]2C/C=C\CCN(C2=O)[C@@H](Cc2ccc(C(F)(F)F)cc2)C(=O)N(C)CC(=O)N[C@@H](CCc2ccc(C(F)(F)F)c(OC)c2)C(=O)N2C[C@@H](C)C[C@H]2C(=O)NC2(CCC2)C(=O)N(C)[C@@H](C2CCCC2)C(=O)N1C` [PP2029], in test [1], the “NRAS/KRAS (ratio of KD value for NRAS to KD value for KRAS)” value was “A (a compound having 10 or more and less than 20 is denoted as A)”. In addition, in test [2], the “HRAS/KRAS (ratio of KD value for HRAS to KD value for KRAS)” value is “B (a compound having 3 or more and less than 10 is denoted as B)”.
Take `CCCN(C)C(=O)[C@@H]1CC(=O)N(C)[C@@H](CC(F)F)C(=O)N[C@@H]([C@@H](C)CC)C(=O)N(C)CC(=O)N(C)[C@H]2C/C=C\CCN(C2=O)[C@@H](Cc2ccc(C(F)(F)F)cc2)C(=O)N(C)CC(=O)N[C@@H](CCc2cc(F)c(C(F)(F)F)c(F)c2)C(=O)N2C[C@H](OCC)C[C@H]2C(=O)NC2(CC(C)(C)C2)C(=O)N(C)[C@@H](C2CCCC2)C(=O)N1C` [PP2030]: the “NRAS/KRAS (ratio of KD value for NRAS to KD value for KRAS)” value in test [1] is “A (a compound having 10 or more and less than 20 is denoted as A)”. In addition, in test [2], the “HRAS/KRAS (ratio of KD value for HRAS to KD value for KRAS)” value is “A (a compound having 10 or more and less than 20 is denoted as A)”.
With `CCCN(C)C(=O)[C@@H]1CC(=O)N(C)[C@@H](COCC)C(=O)N[C@@H]([C@@H](C)CC)C(=O)N(C)CC(=O)N(C)[C@H]2C/C=C\CCN(C2=O)[C@@H](Cc2ccc(C(F)(F)F)cc2)C(=O)N(C)CC(=O)N[C@@H](CCc2cc(F)c(C(F)(F)F)c(F)c2)C(=O)N2C[C@H](OCC)C[C@H]2C(=O)NC2(CC(C)(C)C2)C(=O)N(C)[C@@H](C2CCCC2)C(=O)N1C` [PP2031], in test [1], the “NRAS/KRAS (ratio of KD value for NRAS to KD value for KRAS)” value is “B (a compound having 3 or more and less than 10 is denoted as B)”. Also, in test [2], the “HRAS/KRAS (ratio of KD value for HRAS to KD value for KRAS)” value is “B (a compound having 3 or more and less than 10 is denoted as B)”.
As to `CCOC[C@H]1C(=O)N[C@@H]([C@@H](C)CC)C(=O)N(C)CC(=O)N(C)[C@H]2C/C=C\CCN(C2=O)[C@@H](Cc2ccc(C(F)(F)F)cc2)C(=O)N(C)CC(=O)N[C@@H](CCc2cc(F)c(C(F)(F)F)c(F)c2)C(=O)N2C[C@H](OCC)C[C@H]2C(=O)NC2(CC(C)(C)C2)C(=O)N(C)[C@@H](C2CCCC2)C(=O)N(C)[C@H](C(=O)N(C)CC)CC(=O)N1C` [PP2032], in test [1], the “NRAS/KRAS (ratio of KD value for NRAS to KD value for KRAS)” value was “A (a compound having 10 or more and less than 20 is denoted as A)”. The “HRAS/KRAS (ratio of KD value for HRAS to KD value for KRAS)” value in test [2] was “B (a compound having 3 or more and less than 10 is denoted as B)”.
For the compound `CCO[C@@H]1C[C@H]2C(=O)NC3(CC(C)(C)C3)C(=O)N(C)[C@@H](C3CCCC3)C(=O)N(C)[C@H](C(=O)N(C)CC)CC(=O)N(C)[C@@H](C(C)C)C(=O)N[C@@H]([C@@H](C)CC)C(=O)N(C)CC(=O)N(C)[C@H]3C/C=C\CCN(C3=O)[C@@H](Cc3ccc(C(F)(F)F)cc3)C(=O)N(C)CC(=O)N[C@@H](CCc3cc(F)c(C(F)(F)F)c(F)c3)C(=O)N2C1` [PP2034], the “NRAS/KRAS (ratio of KD value with respect to NRAS to KD value with respect to KRAS)” value in test [1] was “A (a compound having 10 or more and less than 20 is denoted as A)”. In addition, in test [2], the “HRAS/KRAS (ratio of KD value with respect to HRAS to KD value with respect to KRAS)” value was “A (a compound having 10 or more and less than 20 is denoted as A)”.
For the compound `CCO[C@@H]1C[C@H]2C(=O)NC3(CC(C)(C)C3)C(=O)N(C)[C@@H](C3CCCC3)C(=O)N(C)[C@H](C(=O)N(C)CC)CC(=O)N(C)[C@@H](C3CC3)C(=O)N[C@@H]([C@@H](C)CC)C(=O)N(C)CC(=O)N(C)[C@H]3C/C=C\CCN(C3=O)[C@@H](Cc3ccc(C(F)(F)F)cc3)C(=O)N(C)CC(=O)N[C@@H](CCc3cc(F)c(C(F)(F)F)c(F)c3)C(=O)N2C1` [PP2036], the “NRAS/KRAS (ratio of KD value with respect to NRAS to KD value with respect to KRAS)” value in test [1] was “A (a compound having 10 or more and less than 20 is denoted as A)”. For the same compound, the “HRAS/KRAS (ratio of KD value with respect to HRAS to KD value with respect to KRAS)” value in test [2] was “A (a compound having 10 or more and less than 20 is denoted as A)”.
Consider `CCCN(C)C(=O)[C@@H]1CC(=O)N(C)[C@@H](C2CC2)C(=O)N[C@@H]([C@@H](C)CC)C(=O)N(C)CC(=O)N(C)[C@H]2C/C=C\CCN(C2=O)[C@@H](Cc2ccc(C(F)(F)F)cc2)C(=O)N(C)CC(=O)N[C@@H](CCc2cc(F)c(C(F)(F)F)c(F)c2)C(=O)N2C[C@H](OCC)C[C@H]2C(=O)NC2(CC(C)(C)C2)C(=O)N(C)[C@@H](C2CCCC2)C(=O)N1C` [PP2037], for which the “NRAS/KRAS (ratio of KD value with respect to NRAS to KD value with respect to KRAS)” value in test [1] was “A (a compound having 10 or more and less than 20 is denoted as A)”. Besides, the “HRAS/KRAS (ratio of KD value with respect to HRAS to KD value with respect to KRAS)” value in test [2] is “A (a compound having 10 or more and less than 20 is denoted as A)”.
Turning to `CCO[C@@H]1C[C@H]2C(=O)NC3(CC(C)(C)C3)C(=O)N(C)[C@@H](C3CCCC3)C(=O)N(C)[C@H](C(=O)N(C)CC)CC(=O)N(C)[C@@H](C3CCC3)C(=O)N[C@@H]([C@@H](C)CC)C(=O)N(C)CC(=O)N(C)[C@H]3C/C=C\CCN(C3=O)[C@@H](Cc3ccc(C(F)(F)F)cc3)C(=O)N(C)CC(=O)N[C@@H](CCc3cc(F)c(C(F)(F)F)c(F)c3)C(=O)N2C1` [PP2038], the “NRAS/KRAS (ratio of KD value with respect to NRAS to KD value with respect to KRAS)” value in test [1] is “A (a compound having 10 or more and less than 20 is denoted as A)”. The “HRAS/KRAS (ratio of KD value with respect to HRAS to KD value with respect to KRAS)” value in test [2] is “A (a compound having 10 or more and less than 20 is denoted as A)”.
As for `CCCN(C)C(=O)[C@@H]1CC(=O)N(C)[C@@H](CC(F)F)C(=O)N[C@@H]([C@@H](C)CC)C(=O)N(C)CC(=O)N(C)[C@H]2C/C=C\CCN(C2=O)[C@@H](Cc2ccc(C(F)(F)F)cc2)C(=O)N(C)CC(=O)N[C@@H](CCc2cc(F)c(C(F)(F)F)c(F)c2)C(=O)N2C[C@@H](C)C[C@H]2C(=O)NC2(CC(C)(C)C2)C(=O)N(C)[C@@H](C2CCCC2)C(=O)N1C` [PP2040], the “NRAS/KRAS (ratio of KD value with respect to NRAS to KD value with respect to KRAS)” value in test [1] is “A (a compound having 10 or more and less than 20 is denoted as A)”. Further, the “HRAS/KRAS (ratio of KD value with respect to HRAS to KD value with respect to KRAS)” value in test [2] was “A (a compound having 10 or more and less than 20 is denoted as A)”.
As to `CCCN(C)C(=O)[C@@H]1CC(=O)N(C)[C@@H](COCC)C(=O)N[C@@H]([C@@H](C)CC)C(=O)N(C)CC(=O)N(C)[C@H]2C/C=C\CCN(C2=O)[C@@H](Cc2ccc(C(F)(F)F)cc2)C(=O)N(C)CC(=O)N[C@@H](CCc2cc(F)c(C(F)(F)F)c(F)c2)C(=O)N2C[C@@H](C)C[C@H]2C(=O)NC2(CC(C)(C)C2)C(=O)N(C)[C@@H](C2CCCC2)C(=O)N1C` [PP2041], in test [1], the “NRAS/KRAS (ratio of KD value with respect to NRAS to KD value with respect to KRAS)” value was “A (a compound having 10 or more and less than 20 is denoted as A)”. Besides, the “HRAS/KRAS (ratio of KD value with respect to HRAS to KD value with respect to KRAS)” value in test [2] was “A (a compound having 10 or more and less than 20 is denoted as A)”.
With `CCOC[C@H]1C(=O)N[C@@H]([C@@H](C)CC)C(=O)N(C)CC(=O)N(C)[C@H]2C/C=C\CCN(C2=O)[C@@H](Cc2ccc(C(F)(F)F)cc2)C(=O)N(C)CC(=O)N[C@@H](CCc2cc(F)c(C(F)(F)F)c(F)c2)C(=O)N2C[C@@H](C)C[C@H]2C(=O)NC2(CC(C)(C)C2)C(=O)N(C)[C@@H](C2CCCC2)C(=O)N(C)[C@H](C(=O)N(C)CC)CC(=O)N1C` [PP2042], the “NRAS/KRAS (ratio of KD value with respect to NRAS to KD value with respect to KRAS)” value in test [1] is “A (a compound having 10 or more and less than 20 is denoted as A)”. Moreover, the “HRAS/KRAS (ratio of KD value with respect to HRAS to KD value with respect to KRAS)” value in test [2] is “A (a compound having 10 or more and less than 20 is denoted as A)”.
